# Non-standard residues stand in square brackets, D forms with d. No end group written: not given here. pGlu = O=C1CC[C@@H](C(=O)O)N1
# B1: recombinant chuPCI (cystine-knot metallocarboxypeptidase inhibitor from Solanum tuberosum subsp. andigenum cv. Churqueña) (natural protein)
# chain: QRDPDPICNKPCKTHDDCSGAWFCQACWNSARTCGPYVG
# modifications: also: N-terminal Gln partly cyclised to pyroglutamate
# notes: mature chuPCI (39 amino acids) of the chuPCI precursor, S. tuberosum subsp. andigenum cv; Churqueña; Cloned in pIN-III-OmpA3 with the OmpA3 signal peptide at the N-terminus for secretion; The mass of the purified protein (4326.3 Da) fits the 39 residues without the signal peptide; Three disulfide bonds (Cys8-Cys24, Cys12-Cys27, Cys18-Cys34); also called rchuPCI; recombinant churqueña PCI; source: …
# Legend:
# [1] = test system: immobilized CPA; test: C-terminal cleavage by immobilized CPA; parameters: species or system bovine; conditions: affinity chromatography eluate, MALDI-TOF
# Description: (§1) A 50 mL aliquot of the clarified crude extract (with a protein concentration of (200 μg·mL^−1) was loaded onto a 2.0 mL bovine CPA-glyoxyl-agarose column prepared in house. The affinity resin was prepared in house as described. Before the addition of the crude extract, the affinity resin was previously equilibrated with 10 column volumes (cv) 0.1 M Tris-HCl buffer (pH 7.2) containing 0.2 M NaCl. Then, the column was washed with 5 cv of equilibration buffer. The retained proteins were eluted with two different buffers: (1) HCl solution with pH = 5.0 (2 cv) and (2) […] solution with pH = 3.0 (2 cv). The eluted fractions were adjusted immediately to pH 7.0 by adding NaOH. All the fractions that presented CPA inhibitory activity were pooled and stored at −80 °C until analysis.
# (§2) For MALDI-TOF mass spectrometric analysis, samples from the different purification steps, as well as from the clarified crude extract were mixed with an equal volume of α-cyano-4-hydroxycinnamic acid (hcca) matrix solution. Previously, the samples were desalted by dialysis in 0.022 μm filters. The matrix-sample mixture was spotted onto MT 384 target plate polished steel T F from Bruker Daltonics, and the spots were evaporated to dryness at room temperature. […] The resultant tryptic peptides were dissolved in 10 μL of 0.1% CF3CO2H (v/v) an analyzed by MALDI-TOF in the presence of hcca matrix. […]
# [2] = test system: bovine CPA; test: Affinity chromatography on CPA-glyoxyl-agarose (binding to immobilized CPA), MALDI-TOF read-out; conditions: heat-treated extract (100 °C, 60 min); 0.1 M Tris-HCl pH 7.2, 0.2 M NaCl
# Description: as §1, §2
# [3] = cited from earlier work
# Description: To date, a large number of CKMPs have been identified and isolated from natural sources (i.e., from arthropods, vertebrates, mollusks, fungi, plants, and so on). These molecules belong to more than 34 protein families and are involved in diverse biological functions. In animals, CKMPs are secreted peptides that function as extracellular signaling molecules involved in the regulation of important cellular functions such as cell growth or cell development. In plants, CKMPs are often involved in defense against external pathogens. Typically, the latter group functions as prote ...
# [4] = test system: immobilized CPA; conditions: after binding of the inhibitor to immobilized CPA; cited from earlier work
# Description: For further characterization, the initial heat-treated crude extract, the flow-through (fraction containing the non-retained peptides and proteins), and the elution from the affinity chromatography containing the final purified protein were subjected to MALDI-TOF mass spectrometry. A detailed analysis of the peaks present in the mass spectra for the initial heat-treat ...
# [5] = test system: adenocarcinoma cell; conditions: in vitro, acting as epidermal growth factor (EGF) antagonist; cited from earlier work
# Description: (§3) A number of CKMPs function as potent protease peptide inhibitors (PPIs). Among them, the potato carboxypeptidase inhibitor (PCI) was the first CKMPs to be discovered. […] The first crystal structure of this 39 amino acid plant protease inhibitor was reported in 1980 by Rees and Liscomb. After almost 40 years of intense research in the field of proteases, only a small number of metallocarboxypept ...
# [6] = ref 34 (Wang and co-workers, 2006); cited from earlier work
# Description: as §3
# [7] = test system: metallocarboxypeptidases (MCPs); conditions: cited from earlier work
# Description: as §3
# [8] = test system: pancreatic carboxypeptidases A and B (CPA and CPB, respectively); conditions: in vitro, by pancreatic carboxypeptidases A and B; cited from earlier work
# Description: as §3
# [9] = target: bovine carboxypeptidases A (bCPA); test: Inhibition kinetic constant (Ki), bCPA, pre-steady-state tight-binding (Morrison) assay; type: biochemical; conditions: against bCPA
# Description: (§4) The inhibitory properties of the purified rchuPCI against bCPA and pCPB were determined and compared with a recombinant version of the canonical PCI. The Ki values were evaluated following a pre-steady-state based protocol, according to the Morrison model for tight-binding inhibitors. […] When compared to the canonical PCI, the Ki values obtained for rchuPCI against bCPA and pCPB were about 2-fold higher than the Ki values obtained for recombinant PCI (rPCI).
# (§5) The method for tight binding inhibitors was used for the Ki determination. Inhibitory assays were performed at 25 °C under equilibrium conditions ([E0]/Ki ≤ 10) with a fixed concentration of bCPA or pCPB and substrate (0.1 mM N-(4-methoxyphenylazoformyl)-Phe-OH or 0.1 mM N-(4-methoxyphenylazoformyl)-Arg-OH, respectively) in Tris-HCl buffer (pH 7.5) containing 0.2 M NaCl. Samples were pre-incubated for 15 min at RT before the addition of substrate. Then, the decrease in absorbance was measured at 340 nm in a Victor3 (Perkin Elmer, Boston, MA, USA) plate reader. Ki values were calculated by direct fitting of the fractional activities (vi/v0) to the Morrison equation and assuming a competitive inhibition modality (Equations (3) and (4)). (3) vi/v0=1−([E]T+[I]T+Kiapp)−([E]T+[I]T+Kiapp)^2−4[E]T[I]T/2[E]T (4) Ki=Kiapp/([S0/KM])+1 […]
# [10] = target: porcine carboxypeptidases B (pCPB); test: Inhibition kinetic constant (Ki), pCPB, pre-steady-state tight-binding (Morrison) assay; type: biochemical; conditions: against pCPB
# Description: as §4, §5
# [11] = test system: bovine CPA; test: CPA inhibitory activity after heat treatment (thermal stability); type: physicochemical; conditions: crude extract, 100 °C for 60 min; Bradford and CPA inhibition
# Description: The bCPA inhibitory activity of the crude extract and the heat-treated samples was determined similarly as described above for the determination of the IC50 values. However, in this case a unique concentration of the sample was tested. bCPA inhibitory activity (%) was calculated by using the following equation:(2) Y=(ΔAbs340nm/Δt(min))potato extract/(ΔAbs340nm/Δt(min))control×100
# (§6) Aliquots with 1.0 mL of the clarified crude extract (see Section 3.2) where incubated at 60, 70, 85 or 100 °C for 60 min. After incubation the samples were centrifuged at 14,500× g for 90 min at 4 °C to eliminate all thermally denatured proteins. Afterwards, the total protein content and the inhibitory activity of the non-treated crude extract and heat-treated samples were determined.
# [12] = MALDI-TOF MS of heat-treated samples (thermal stability); type: physicochemical; conditions: crude extract heat-treated 60 min; MALDI-TOF linear positive mode
# Description: as §6
# For MALDI-TOF mass spectrometric analysis, samples from the different purification steps, as well as from the clarified crude extract were mixed with an equal volume of α-cyano-4-hydroxycinnamic acid (hcca) matrix solution. Previously, the samples were desalted by dialysis in 0.022 μm filters. The matrix-sample mixture was spotted onto MT 384 target plate polished steel T F from Bruker Daltonics, and the spots were evaporated to dryness at room temperature. Mass spectra were acquired on a Bruker Daltonics Ultraflextreme MALDI-TOF mass spectrometer (Bruker Daltonics, Billerica, MA, USA) operating in a linear positive mode. PMF analysis was performed for the identification of nchuPCI. In brief, an in situ tryptic digestion of the tris-tricine-SDS-PAGE electrophoresis bands as performed by following a well described protocol. The resultant tryptic peptides were dissolved in 10 μL of 0.1% CF3CO2H (v/v) an analyzed by MALDI-TOF in the presence of hcca matrix. […]
# [13] = test system: calcium channel; conditions: cited from earlier work
# [14] = target: T1, Carboxypeptidase B from porcine pancreas (porcine, UniProt P09955 111-416); test: enzyme inhibition kinetics (Morrison equation for tight-binding inhibitors); 25 °C, equilibrium conditions ([E0]/Ki <= 10), fixed bCPA or pCPB, 0.1 mM N-(4-methoxyphenylazoformyl)-Phe-OH (bCPA) or -Arg-OH (pCPB), Tris-HCl pH 7.5, 0.2 M NaCl; pre-incubated 15 min at RT; absorbance at 340 nm; competitive inhibition assumed; conditions: both partners purified
# T1 construct: carboxypeptidase B from porcine pancreas; also called pCPB; porcine CPB; source: bought: Sigma-Aldrich (from porcine pancreas)
# T1 sequence (looked up): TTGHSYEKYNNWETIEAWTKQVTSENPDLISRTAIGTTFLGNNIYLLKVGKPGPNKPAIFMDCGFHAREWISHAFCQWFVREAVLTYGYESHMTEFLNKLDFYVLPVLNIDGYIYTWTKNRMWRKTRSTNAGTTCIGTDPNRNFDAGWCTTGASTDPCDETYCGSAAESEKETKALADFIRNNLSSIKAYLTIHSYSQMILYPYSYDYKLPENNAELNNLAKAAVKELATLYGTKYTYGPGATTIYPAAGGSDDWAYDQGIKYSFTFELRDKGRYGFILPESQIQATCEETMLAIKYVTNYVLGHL
# [15] = target: T2, Carboxypeptidase A from bovine pancreas (bovine, UniProt P00730 111-419); test: as above; conditions: both partners purified
# T2 construct: carboxypeptidase A from bovine pancreas; Free in solution for the Ki determinations; also called bCPA; bovine CPA; source: bought: Sigma-Aldrich (from bovine pancreas)
# T2 sequence (looked up): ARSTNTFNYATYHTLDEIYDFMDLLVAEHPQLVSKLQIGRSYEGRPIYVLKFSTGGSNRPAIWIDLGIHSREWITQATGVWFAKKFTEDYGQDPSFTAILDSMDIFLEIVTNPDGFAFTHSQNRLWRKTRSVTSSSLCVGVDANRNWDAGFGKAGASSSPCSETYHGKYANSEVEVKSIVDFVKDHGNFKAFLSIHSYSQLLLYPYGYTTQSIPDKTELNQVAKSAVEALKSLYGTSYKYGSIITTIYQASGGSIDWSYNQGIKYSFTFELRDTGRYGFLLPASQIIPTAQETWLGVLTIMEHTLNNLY
# [16] = compared to recombinant PCI (rPCI)
molecule,measurement,setting,value
"[pGlu]RDPDPICNKPCKTHDDCSGAWFCQACWNSARTCGPYVG (disulfide (positions not given here)) [IIIa, full-length chuPCI post-translationally modified with an N-terminal pyroglutamic acid]",C-terminal cleavage by immobilized CPA (mass shift),[1],loss of 57 Da
same,Retention by immobilized CPA (MALDI-TOF of flow-through vs initial extract),[2],clear fading of the molecular ion intensities
"kalata B1: CKMP isolated from plants (GLPVCGETCVGGTCNTPGCTCSWPVCTRN; ends and bridges not checked; also: cystine-knot disulfides, pairing not given here; UniProt P56254 89-117, looked up)",Antibacterial and/or antifungal activities,[3],antibacterial and/or antifungal activities
"PCI: potato carboxypeptidase inhibitor, 39 amino acid plant protease inhibitor from Solanum tuberosum (QQHADPICNKPCKTHDDCSGAWFCQACWNSARTCGPYVG)",C-terminal cleavage by immobilized CPA,[4],a C-terminal glycine residue is usually cleaved by the immobilized CPA
same,Inhibition of adenocarcinoma cell growth,[5],inhibit in vitro adenocarcinoma cell growth
same,Antithrombotic action,[6],can act as an antithrombotic drug
same,Inhibition of metallocarboxypeptidases,[7],inhibits different enzymes within the family of metallocarboxypeptidases
same,Blocking of C-terminal cleavage (and consequent inactivation) of human EGF,[8],blocks the C-terminal cleavage
"-RDPDPICNKPCKTHDDCSGAWFCQACWNSARTCGPYVG (disulfide) [IIa, chuPCI lacking the N-terminal amino acid]",C-terminal cleavage by immobilized CPA (mass shift),[1],loss of 57 Da
same,Retention by immobilized CPA (MALDI-TOF of flow-through vs initial extract),[2],clear fading of the molecular ion intensities
"QRDPDPICNKPCKTHDDCSGAWFCQACWNSARTCGPYVG (disulfide (positions not given here)) [rchuPCI, recombinant product of mature chuPCI (39 amino acids) expressed in E. coli BL21 (DE3)]",All Ki values determined (range in words),[9],nanomolar range
same,Ki values obtained for rchuPCI compared with rPCI (fold higher),[9]; [16],about 2 fold
same,All Ki values determined (range in words),[10],nanomolar range
same,Ki values obtained for rchuPCI compared with rPCI (fold higher),[10]; [16],about 2 fold
"[pGlu]RDPDPICNKPCKTHDDCSGAWFCQACWNSARTCGPYVG (disulfide (positions not given here)) [native chuPCI, Churqueña]",Temperature stability of CPA inhibitory activity,[11],"high temperature stability, even after thermal treatment at 100 °C for 60 min"
same,Heat resistance of the 4309 Da peak/miniprotein,[12],heat-resistant molecule
ω-conotoxin MVIIa,Calcium channel block,[13],calcium channel blocker
"QQHADPICNKPCKTHDDCSGAWFCQACWNSARTCGPYVG (natural protein, Solanum tuberosum subsp. tuberosum, UniProt P01075 1-39, looked up, also called canonical PCI) [recombinant canonical potato carboxypeptidase inhibitor (PCI)]",Ki,[14],10.7 ± 1.17 nM
same,Ki,[15],4.3 ± 0.46 nM
B1,Ki,[14],19.8 ± 1.82 nM
same,Ki,[15],10.8 ± 1.55 nM

# — PMC5877539, “Biochemical and MALDI-TOF Mass Spectrometric Characterization of a Novel Native and Recombinant Cystine Knot Miniprotein from Solanum tuberosum subsp. andigenum cv. Churqueña” (International Journal of Molecular Sciences, 2018)
